Data on 35 compounds can be found in patent US20070032529A1, “Pyrazole compounds and their use as antidiabetes agents” (Japan Tobacco Inc., priority 2005, published 2007).

Counter-ions that a name gives are not always drawn.

By IC50 is commonly meant the midpoint of a concentration-inhibition curve.

The target of experiment [1] is T1, recombinant human liver glycogen phosphorylase (Homo sapiens, UniProt P06737).
T1 construct: made in house; host or cells: Sf9 insect cells (crude homogenate, diluted, used as the enzyme solution)
T1 sequence (P06737 1-847): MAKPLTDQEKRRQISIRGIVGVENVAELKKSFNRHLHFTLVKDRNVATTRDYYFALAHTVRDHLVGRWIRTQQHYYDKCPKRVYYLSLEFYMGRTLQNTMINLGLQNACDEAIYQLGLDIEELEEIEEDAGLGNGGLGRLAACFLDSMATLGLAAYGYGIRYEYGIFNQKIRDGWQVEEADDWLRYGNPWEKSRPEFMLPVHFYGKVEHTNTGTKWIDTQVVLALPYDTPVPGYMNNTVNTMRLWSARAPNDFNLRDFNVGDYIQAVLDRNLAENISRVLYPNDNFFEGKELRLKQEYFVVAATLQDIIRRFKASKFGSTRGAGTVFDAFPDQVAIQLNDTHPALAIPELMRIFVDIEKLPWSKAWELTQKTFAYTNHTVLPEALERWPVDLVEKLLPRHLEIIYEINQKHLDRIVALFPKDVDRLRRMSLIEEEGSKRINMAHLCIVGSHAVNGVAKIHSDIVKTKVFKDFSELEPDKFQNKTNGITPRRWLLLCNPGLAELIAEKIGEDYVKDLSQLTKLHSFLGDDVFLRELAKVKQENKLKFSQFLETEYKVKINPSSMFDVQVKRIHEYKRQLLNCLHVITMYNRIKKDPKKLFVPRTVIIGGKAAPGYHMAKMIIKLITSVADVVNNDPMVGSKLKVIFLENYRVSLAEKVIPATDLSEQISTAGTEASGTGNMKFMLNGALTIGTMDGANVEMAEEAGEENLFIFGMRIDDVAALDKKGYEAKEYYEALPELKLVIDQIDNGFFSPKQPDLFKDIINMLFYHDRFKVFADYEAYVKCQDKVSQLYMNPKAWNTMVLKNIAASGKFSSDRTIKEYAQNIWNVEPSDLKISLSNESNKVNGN
The experiment can be described thus: Measuring liver glycogen phosphorylase activity (forward reaction system, NADPH absorbance at 340 nm). Format: biochemical. Put shortly: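 Sf9 homogenate expressing the enzyme, in pH 6.8 BES/EDTA, with glycogen and phosphate substrate plus glucose, coupled via phosphoglucomutase/G6PDH to NADPH formation. A340 change over 75 min at room temperature, blank-corrected; IC50 linearly interpolated between the two concentrations bracketing 50% inhibition versus 1% DMSO control.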

The subject of a further experiment is db/db mice. The experiment can be described thus: Measuring blood plasma glucose concentration in db/db mice (hypoglycemic effect). Format: in vivo. More on the design: key: ++: compounds exhibiting statistically significant hypoglycemic effect at a dose of 10 mg/kg or less; +: compounds exhibiting not significant but obvious hypoglycemic effect at a dose of 10 mg/kg. As to conditions: for vivo (hypoglycemic effect in db/db mice): db/db mice fasted 4 h, oral administration, plasma glucose 1 and 3 hours after administration, dose 10 mg/kg or less, Dunnett test vs solvent; for vivo (hypoglycemic effect): db/db mice, blood plasma glucose, dose of 10 mg/kg or less. How it is done: 2. Exemplary Test (2) Method for Measuring Blood Plasma Glucose Concentration
Using db/db mice representing an obesity type of diabetic model were used to examine the effect of compound (1) of the present invention on glucose concentrations in plasma. Plasma glucose concentrations of the db/db mice (9-18 weeks old) were measured, and the mice were divided into groups each of 5 or 8 mice such that there would be no difference in the average value of plasma glucose concentrations. After fasting for four hours, the example compound or the solvent (0.5% methylcellulose) was administered orally to the db/db mice, and plasma glucose concentrations were measured 1 and 3 hours after administration. The analysis of the hypoglycemic effect of the example compound was performed through a statistical test at every hour between the group receiving the solvent and the groups of example compound (Dunnett test).

Where [2] appears, read: enzyme inhibitory activity with respect to liver glycogen phosphorylase, class symbols.
The mark [3] stands for this setting: human liver glycogen phosphorylase, class symbol.

Turning to `CCCCN(Cc1cccnc1)C(=O)c1cc(NC(=O)c2cc(F)c(F)cc2Cl)[nH]n1` [Example 1-107], the IC50 in experiment [1] (setting [2]) was under 100 nM. Also, the “vivo (hypoglycemic effect in db/db mice)” value in the experiment with db/db mice is “++”.
On the same counts, the results for `Cc1cc(C)c(CNC(=O)c2cc(NC(=O)c3cc(F)c(F)cc3Cl)[nH]n2)cn1` [Example 2-4-1, 5-(2-chloro-4,5-difluoro-benzoylamino)-1H-pyrazole-3-carboxylic acid (4,6-dimethyl-pyridin-3-ylmethyl)-amide dihydrochloride] are under 100 nM and “++”.
On the same counts, the results for `CCNC(=O)CN(C(=O)c1cc(NC(=O)c2cc(F)c(F)cc2Cl)[nH]n1)c1ccccc1` [Example 4-23] are under 100 nM and “+”.
In the case of `CCCN(Cc1cccnc1)C(=O)c1cc(NC(=O)c2cc(F)c(F)cc2Cl)[nH]n1` [Example 1-117], the half-maximal inhibitory concentration (IC50) in experiment [1] (setting [2]) is under 100 nM. Moreover, the “vivo (hypoglycemic effect in db/db mice)” value in the experiment with db/db mice was “+”.
On to `CC(OC(=O)OC1CCCCC1)OC(=O)c1ccc(N(C)C(=O)c2cc(NC(=O)c3cc(F)c(F)cc3Cl)[nH]n2)cc1` (stereo not shown) [Example 6-17], for which the inhibition at 0.1 µM in experiment [1] (figure in brackets (100), read-out: IC50: % value given with (100)) is 9.8%. In addition, in the experiment with db/db mice, the “vivo (hypoglycemic effect)” value is “+”.
`Cl.Nc1cccc(F)c1CNC(=O)c1cc(NC(=O)c2cc(F)c(F)cc2Cl)[nH]n1` [Example 6-39]: the IC50 in experiment [1] (setting [3]) was under 100 nM. Moreover, the “vivo (hypoglycemic effect)” value in the experiment with db/db mice is on record as “+”.
As to `O=C(NCc1ncc(F)cc1F)c1cc(NC(=O)c2cc(F)c(F)cc2Cl)[nH]n1` [Example 1-26], in experiment [1] (setting [2]), the IC50 was under 100 nM. In addition, the “vivo (hypoglycemic effect in db/db mice)” value with db/db mice was “+”.
Taken in the same sequence, the figures for `O=C(NCc1c(Cl)cncc1Cl)c1cc(NC(=O)c2cc(F)c(F)cc2Cl)[nH]n1` [Example 1-135] were under 100 nM and “+”.
On the same counts, the results for `COc1ccc(CNC(=O)c2cc(NC(=O)c3cc(F)c(F)cc3Cl)[nH]n2)cc1` [Example 1-68] are under 100 nM and “+”.
On the same counts, the results for `O=C(NN1CCOCC1)c1cccc(CNC(=O)c2cc(NC(=O)c3cc(F)c(F)cc3Cl)[nH]n2)c1` [Example 5-12] are under 100 nM and “+”.
Take `Cl.O=C(NCc1ccncc1)c1cc(NC(=O)c2cc(F)c(F)cc2Cl)[nH]n1` [Example 3-21]: in experiment [1] (setting [2]), the IC50 is under 100 nM. Also, the “vivo (hypoglycemic effect in db/db mice)” value in the experiment with db/db mice was “++”.
Taken in the same sequence, the figures for `CCCCN(C(=O)c1cc(NC(=O)c2cc(F)c(F)cc2Cl)[nH]n1)C1CCN(C(=O)C(=O)O)CC1` [Example 1-113] were under 100 nM and “++”.
Regarding `COc1ccnc(CNC(=O)c2cc(NC(=O)c3cc(F)c(F)cc3Cl)[nH]n2)c1` [Example 3-45], the IC50 in experiment [1] (setting [2]) is under 100 nM. Besides, in the experiment with db/db mice, the “vivo (hypoglycemic effect in db/db mice)” value was “+”.
Taken in the same sequence, the figures for `Cc1cccc(CNC(=O)c2cc(NC(=O)c3cc(F)c(F)cc3Cl)[nH]n2)c1` [Example 3-33] were under 100 nM and “+”.
For `COc1ccc(CNC(=O)c2cc(NC(=O)c3cc(F)c(F)cc3Cl)[nH]n2)cn1` [Example 5-16], in experiment [1] (setting [2]), the IC50 is under 100 nM. In the experiment on db/db mice (10 mg/kg), the “vivo (hypoglycemic effect in db/db mice)” value is “+”.
With `COc1nc(C)ccc1CNC(=O)c1cc(NC(=O)c2cc(F)c(F)cc2Cl)[nH]n1` [Example 2-5, 5-(2-chloro-4,5-difluoro-benzoylamino)-1H-pyrazole-3-carboxylic acid (2-methoxy-6-methyl-pyridin-3-ylmethyl)-amide], the IC50 in experiment [1] (setting [2]) was under 100 nM. In addition, in the experiment on db/db mice, the “vivo (hypoglycemic effect in db/db mice)” value is listed as “++”.
Taken in the same sequence, the figures for `O=C(NCc1c(F)cccc1F)c1cc(NC(=O)c2cc(F)c(F)cc2Cl)[nH]n1` [Example 1-21] were under 100 nM and “+”.
Taken in the same sequence, the figures for `O=C(NCc1ccc(Cl)nc1)c1cc(NC(=O)c2cc(F)c(F)cc2Cl)[nH]n1` [Example 2-23] were under 100 nM and “+”.
On the same counts, the results for `CN(C(=O)c1cc(NC(=O)c2cc(F)c(F)cc2Cl)[nH]n1)c1ccccc1` [Example 3-4] are 100 to 300 nM and “+”.
Consider `CCCN(Cc1ccc(N(C)C)nc1)C(=O)c1cc(NC(=O)c2cc(F)c(F)cc2Cl)[nH]n1` [Example 1-130], for which, in experiment [1] (setting [2]), the IC50 is under 100 nM. Besides, in the experiment on db/db mice, the “vivo (hypoglycemic effect in db/db mice)” value was “+”.
Turning to `C=CCN(C(=O)c1cc(NC(=O)c2cc(F)c(F)cc2Cl)[nH]n1)C1CCCCC1` [Example 1-81], the IC50 in experiment [1] (setting [2]) is under 100 nM. In the experiment with db/db mice, the “vivo (hypoglycemic effect in db/db mice)” value is listed as “+”.
On the same counts, the results for `O=C(Nc1cc(C(=O)N(Cc2ccccn2)C2CCCCC2)n[nH]1)c1cc(F)c(F)cc1Cl` [Example 1-82] are under 100 nM and “+”.
Taken in the same sequence, the figures for `COc1nc(C)cc(C)c1CNC(=O)c1cc(NC(=O)c2cc(F)c(F)cc2Cl)[nH]n1` [Example 2-7-1, 5-(2-chloro-4,5-difluoro-benzoylamino)-1H-pyrazole-3-carboxylic acid (2-methoxy-4,6-dimethyl-pyridin-3-ylmethyl)-amide dihydrochloride] were under 100 nM and “++”.
Taken in the same sequence, the figures for `Cc1nc(C)c(CNC(=O)c2cc(NC(=O)c3cc(F)c(F)cc3Cl)[nH]n2)s1.Cl` [Example 5-33] were under 100 nM and “+”.
Take `CCCCN(C(=O)c1cc(NC(=O)c2cc(F)c(F)cc2Cl)[nH]n1)c1ccc(C(=O)O)cc1` [Example 4-41]: in experiment [1] (setting [2]), the IC50 is under 100 nM. Also, the “vivo (hypoglycemic effect in db/db mice)” value in the experiment on db/db mice was “+”.
As to `Cc1noc(C)c1CNC(=O)c1cc(NC(=O)c2cc(F)c(F)cc2Cl)[nH]n1` [Example 1-46], the IC50 in experiment [1] (setting [2]) is under 100 nM. Further, in the experiment on db/db mice, the “vivo (hypoglycemic effect in db/db mice)” value is given as “++”.
On the same counts, the results for `COc1ccnc(CNC(=O)c2cc(NC(=O)c3cc(F)c(F)cc3Cl)[nH]n2)c1OC` [Example 1-59] are under 100 nM and “++”.
Regarding `Cc1cccc(C)c1CNC(=O)c1cc(NC(=O)c2cc(F)c(F)cc2Cl)[nH]n1` [Example 1-40], the IC50 in experiment [1] (setting [2]) is under 100 nM. In the experiment with db/db mice, the “vivo (hypoglycemic effect in db/db mice)” value is reported as “+”.
On to `COc1ccc(CNC(=O)c2cc(NC(=O)c3cc(F)c(F)cc3Cl)[nH]n2)cn1` [Example 5-1], for which the IC50 in experiment [1] (setting [2]) is under 100 nM. Also, in the experiment on db/db mice (10 mg/kg), the “vivo (hypoglycemic effect in db/db mice)” value was “+”.
On to `O=C(NCc1cccnc1F)c1cc(NC(=O)c2cc(F)c(F)cc2Cl)[nH]n1` [Example 2-27], for which, in experiment [1] (setting [2]), the IC50 was under 100 nM. Besides, in the experiment on db/db mice, the “vivo (hypoglycemic effect in db/db mice)” value is listed as “+”.
On the same counts, the results for `CN(C)c1ccc(CNC(=O)c2cc(NC(=O)c3cc(F)c(F)cc3Cl)[nH]n2)cc1` [Example 3-24] are under 100 nM and “+”.
Taken in the same sequence, the figures for `O=C(NCc1nc2ccccc2s1)c1cc(NC(=O)c2cc(F)c(F)cc2Cl)[nH]n1` [Example 1-52] were under 100 nM and “+”.
Taken in the same sequence, the figures for `COc1ccc(CNC(=O)c2cc(NC(=O)c3cc(F)c(F)cc3Cl)[nH]n2)cn1.CS(=O)(=O)O` [Example 5-15] were under 100 nM and “+”.
As to `O=C(NCc1ccnc(C(=O)NN2CCOCC2)c1)c1cc(NC(=O)c2cc(F)c(F)cc2Cl)[nH]n1` [Example 5-14], the IC50 in experiment [1] (setting [2]) is under 100 nM. Also, the “vivo (hypoglycemic effect in db/db mice)” value in the experiment with db/db mice was “+”.
As to `N#Cc1cc(CNC(=O)c2cc(NC(=O)c3cc(F)c(F)cc3Cl)[nH]n2)ccn1` [Example 6-48], the IC50 in experiment [1] (setting [3]) is under 100 nM. Besides, in the experiment with db/db mice, the “vivo (hypoglycemic effect)” value is “++”.
